Measurements reported in US20120178815A1, “Compositions of (-)-E-10-OH-NT and Methods for Their Synthesis and Use” (Adolor Corporation, priority 2007, published 2012).
pIC50, pKi: −log10 of the molar value. Read-outs that look alike come from different tables or passages of the source.

Experiments:
CYP2D6 = target: T1, CYP2D6 (Homo sapiens, UniProt P10635); test: CYP2D6 inhibition, MAMC substrate; type: in vitro ADME; conditions: average of six replicate experiments; for inhibition at 10 µM: human, microsomes containing human recombinant CYP2D6, probe 7-methoxy-4-(aminomethyl)-coumarin (MAMC), 10 μM test compound, read-out: Inhibition of CYP2D6, % inhib. at 10 μM; for pIC50: 95% confidence limits in parentheses
T1 construct: purchased BD Bioscience
T1 sequence (P10635 whole entry): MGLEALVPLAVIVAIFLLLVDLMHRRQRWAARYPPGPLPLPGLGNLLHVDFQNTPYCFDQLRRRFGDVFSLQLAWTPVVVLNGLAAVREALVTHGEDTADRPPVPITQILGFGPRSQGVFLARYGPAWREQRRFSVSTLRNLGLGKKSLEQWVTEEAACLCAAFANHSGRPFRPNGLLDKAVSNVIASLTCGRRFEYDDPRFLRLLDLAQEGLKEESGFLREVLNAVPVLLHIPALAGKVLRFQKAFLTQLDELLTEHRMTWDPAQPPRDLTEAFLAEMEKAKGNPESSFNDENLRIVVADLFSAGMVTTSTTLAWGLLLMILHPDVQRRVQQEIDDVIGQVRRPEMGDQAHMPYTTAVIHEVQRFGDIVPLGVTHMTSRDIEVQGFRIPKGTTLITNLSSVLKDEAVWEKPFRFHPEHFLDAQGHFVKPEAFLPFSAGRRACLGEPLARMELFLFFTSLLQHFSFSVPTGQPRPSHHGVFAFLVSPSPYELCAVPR
Procedure: Protocol. The inhibitory activities of AT and NT, (+)-E-10-OH-NT and (−)-E-10-OH-NT on cytochrome P450 function were tested using the methods of Chauret et al., 2001, using 7-methoxy-4-(aminomethyl)-coumarin (MAMC) (Venhorst et al., 2000) as substrate. The source of the enzyme was microsomes containing human recombinant CYP2D6 obtained from BD Bioscience. Conversion of MAMC to 7-hydroxy-4-(aminomethyl)coumarin was measured using a PerkinElmer Fusion with a 390 nm excitation filter and a 460 nm emission filter.

[1] = target: T2, human muscarinic receptor M2 (Homo sapiens, UniProt P08172); test: Muscarinic M2 receptor binding, [3H]AF-DX384; conditions: read-out: Affinity for Muscarinic Receptors, M2, Ki
T2 construct: expressed in transfected cells; host or cells: CHO cells (membranes)
T2 sequence (P08172 1-466): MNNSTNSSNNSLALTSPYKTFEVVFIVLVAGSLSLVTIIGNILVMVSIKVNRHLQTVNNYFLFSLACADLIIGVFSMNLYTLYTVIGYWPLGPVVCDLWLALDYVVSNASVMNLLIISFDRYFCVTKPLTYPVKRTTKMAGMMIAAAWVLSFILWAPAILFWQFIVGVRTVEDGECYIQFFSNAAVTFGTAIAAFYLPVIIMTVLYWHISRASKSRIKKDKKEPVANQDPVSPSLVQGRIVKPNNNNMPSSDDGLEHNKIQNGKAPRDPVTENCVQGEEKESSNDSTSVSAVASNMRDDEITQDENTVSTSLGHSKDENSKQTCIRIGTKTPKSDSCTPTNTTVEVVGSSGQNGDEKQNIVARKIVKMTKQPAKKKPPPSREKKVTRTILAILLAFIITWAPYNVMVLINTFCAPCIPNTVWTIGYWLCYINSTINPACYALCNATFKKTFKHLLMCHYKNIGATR
Procedure: Protocol. […] Bound radioactivity was determined by scintillation spectroscopy. Non-specific binding was defined as the amount of bound radioligand in the presence of 1.0 μM atropine. Radioligand for the M1 receptor was [^3H]pirenzepine (2 nM). Radioligand for the M2 receptor was [^3H]AF-DX384 (2 nM). Radioligand for the M3, M4, and M5 receptors was [^3H]4-DAMP.

[2] = target: T3, α1a adrenergic receptor (rat salivary gland membranes) (Rattus norvegicus, UniProt P43140); test: α1a adrenergic receptor binding, [3H]prazocine
T3 construct: tested using membranes prepared from rat salivary gland; from tissue; host or cells: rat salivary gland membranes
T3 sequence (P43140 1-466): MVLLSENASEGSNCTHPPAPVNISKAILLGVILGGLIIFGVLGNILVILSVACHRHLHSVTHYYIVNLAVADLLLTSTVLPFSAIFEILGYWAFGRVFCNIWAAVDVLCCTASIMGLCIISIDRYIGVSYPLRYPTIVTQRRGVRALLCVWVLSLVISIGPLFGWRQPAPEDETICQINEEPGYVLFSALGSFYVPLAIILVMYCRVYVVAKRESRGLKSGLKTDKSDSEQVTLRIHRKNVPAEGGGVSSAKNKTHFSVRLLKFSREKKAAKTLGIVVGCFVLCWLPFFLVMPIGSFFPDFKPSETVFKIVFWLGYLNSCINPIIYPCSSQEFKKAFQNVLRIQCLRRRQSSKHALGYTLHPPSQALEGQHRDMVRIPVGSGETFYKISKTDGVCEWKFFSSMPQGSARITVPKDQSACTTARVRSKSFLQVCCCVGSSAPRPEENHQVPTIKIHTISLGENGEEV
Procedure: The affinities of AT, NT, (+)-E-10-OH-NT and (−)-E-OH-NT for the α1a, α1b, α2a, α2b, and α2c adrenergic receptors was tested. Affinity for the α1a adrenergic receptor was tested using membranes prepared from rat salivary gland. [^3H]Prazocine (0.06 nM) was incubated in the presence of various concentrations of test compounds with the membranes for 1 hour at 22° C. Nonspecific binding was determined in the presence of 10 μM phentolamine. Bound radioactivity was determined by scintillation spectroscopy.

[3] = system: Sprague-Dawley rats, forced swim behaviour; test: Rat Forced Swim Test of depression; type: in vivo; conditions: for amount of time spent climbing: 3-30 mg/kg IP
Source text: Protocol: Male Sprague-Dawley rats (approximately 200 g) are placed in a tank of room temperature water for a fifteen minute practice swim. Every five seconds during the first five minutes of the practice swim, the rats are rated as immobile (floating with motion needed to keep head above the water), swimming (movement across the swim), or climbing (actively trying to climb out of the tank of water, upward directed movements of the forepaws). The percentage of time the rats spent in each of these responses is calculated.
Approximately 24 h after the practice swim, the rats are treated with vehicle or test compound and placed in the tank for a 5 minute swim. As was the case with the practice swim, the rats are rated as immobile, swimming, or climbing during the test swim and the percentage of time spent in each of these responses is calculated. The data are analyzed by one-way ANOVA with post-hoc analysis to compare the behavioral response after vehicle treatment to the behavioral response after drug treatment for each of the three behavioral responses. The level of significance is set at p<0.05.
The percent of time spent immobile, swimming, and climbing (actively trying to scale the sides of the swim tank) in the test swim is shown in FIGS. 15 A, B, and C.

[4] = target: T4, human dopamine transporter (hDAT) (Homo sapiens, UniProt Q01959); test: DA transporter competitive binding assay, [3H]BTCP; conditions: for inhibition at 10 µM: read-out: Monoamine Transporter Affinity, DA, % inhib at 10 μM; for pKi: read-out: Monoamine Transporter Affinity, DA, Ki
T4 construct: expressed in transfected cells; host or cells: CHO cells (membranes)
T4 sequence (Q01959 whole entry): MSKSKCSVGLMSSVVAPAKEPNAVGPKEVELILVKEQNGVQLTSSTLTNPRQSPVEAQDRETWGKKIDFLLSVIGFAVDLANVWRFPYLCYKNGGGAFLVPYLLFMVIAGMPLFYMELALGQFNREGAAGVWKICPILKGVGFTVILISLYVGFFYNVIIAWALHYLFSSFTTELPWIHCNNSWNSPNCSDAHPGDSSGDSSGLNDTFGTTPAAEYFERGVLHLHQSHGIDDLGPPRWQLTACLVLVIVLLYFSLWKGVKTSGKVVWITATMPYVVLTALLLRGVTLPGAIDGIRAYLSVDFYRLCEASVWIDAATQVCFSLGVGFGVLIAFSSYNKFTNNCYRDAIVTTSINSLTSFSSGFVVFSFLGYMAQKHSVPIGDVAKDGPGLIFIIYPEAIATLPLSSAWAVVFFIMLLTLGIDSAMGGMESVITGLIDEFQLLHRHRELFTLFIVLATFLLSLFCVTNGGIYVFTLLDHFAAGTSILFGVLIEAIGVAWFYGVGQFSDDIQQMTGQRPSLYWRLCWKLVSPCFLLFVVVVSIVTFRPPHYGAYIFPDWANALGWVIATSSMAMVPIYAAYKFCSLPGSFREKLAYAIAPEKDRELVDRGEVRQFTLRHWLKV
Procedure: For the DA transporter binding assay, [^3H]N-[1-(2-benzo[b]thiophenyl)cyclohexyl]-piperidine ([^3H]BTCP) (4.0 nM) was incubated for 2 hr at 4° C. with membranes prepared from Chinese hamster ovary (CHO) cells heterologously expressing the cloned human dopamine transporter (hDAT). Various concentrations of test compound were added and bound radioactivity was determined by scintillation spectroscopy. Non-specific binding was defined as binding that occurred in the presence of 10 μM BTCP. The Ki values for the various test compounds were determined using standard methods.

α2b adrenergic receptor = target: T5, α2b adrenergic receptor (Homo sapiens, UniProt P18089); test: α2b adrenergic receptor binding, [3H]RX821002; conditions: read-out: Affinity at α2b adrenergic receptor, Ki
T5 construct: expressed in transfected cells; host or cells: CHO cells
T5 sequence (P18089 whole entry): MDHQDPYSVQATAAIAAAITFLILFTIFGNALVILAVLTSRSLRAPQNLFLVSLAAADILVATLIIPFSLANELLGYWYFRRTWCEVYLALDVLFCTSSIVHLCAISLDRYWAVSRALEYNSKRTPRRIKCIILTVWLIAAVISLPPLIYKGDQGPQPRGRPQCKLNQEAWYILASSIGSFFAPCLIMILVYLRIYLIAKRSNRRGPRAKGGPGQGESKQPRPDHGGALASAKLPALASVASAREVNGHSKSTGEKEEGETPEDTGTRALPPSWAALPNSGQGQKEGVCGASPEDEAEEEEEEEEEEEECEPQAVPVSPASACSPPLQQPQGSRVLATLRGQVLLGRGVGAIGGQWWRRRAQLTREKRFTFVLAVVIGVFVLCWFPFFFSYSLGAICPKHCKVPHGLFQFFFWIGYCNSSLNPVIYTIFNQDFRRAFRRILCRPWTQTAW
Procedure: Nonspecific binding was determined in the presence of 100 μM (−)-epinephrine. Bound radioactivity was determined by scintillation spectroscopy.

[5] = target: T6, DA uptake, rat striatum synaptosomes (Rattus norvegicus, UniProt P23977); test: Inhibition of [3H]-DA uptake into synaptosomes; type: biochemical; conditions: for inhibition at 10 µM: read-out: Monoamine Uptake Inhibition, DA, % inhib. at 10 μM; for pIC50: read-out: Monoamine Uptake Inhibition, DA, IC50
T6 construct: into rat striatum synaptosomes; from tissue; host or cells: rat striatum synaptosomes
T6 sequence (P23977 whole entry): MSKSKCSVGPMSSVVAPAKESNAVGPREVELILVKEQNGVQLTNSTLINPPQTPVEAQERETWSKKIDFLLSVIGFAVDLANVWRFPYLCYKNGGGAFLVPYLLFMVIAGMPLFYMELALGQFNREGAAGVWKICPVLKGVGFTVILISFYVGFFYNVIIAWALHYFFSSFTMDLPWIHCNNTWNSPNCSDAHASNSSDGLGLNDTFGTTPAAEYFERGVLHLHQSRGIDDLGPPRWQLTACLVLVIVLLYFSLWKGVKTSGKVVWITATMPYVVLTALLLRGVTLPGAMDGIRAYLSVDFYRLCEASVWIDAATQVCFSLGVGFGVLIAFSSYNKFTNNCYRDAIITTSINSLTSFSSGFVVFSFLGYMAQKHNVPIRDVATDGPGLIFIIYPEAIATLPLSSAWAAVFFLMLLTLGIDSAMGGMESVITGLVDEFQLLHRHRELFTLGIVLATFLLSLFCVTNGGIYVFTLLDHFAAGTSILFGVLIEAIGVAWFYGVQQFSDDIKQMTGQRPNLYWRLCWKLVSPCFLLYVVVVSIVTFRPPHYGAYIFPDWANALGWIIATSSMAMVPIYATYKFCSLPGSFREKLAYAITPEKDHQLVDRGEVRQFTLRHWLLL

[6] = read-out: Affinity at α1a adrenergic receptor, Ki

| Compound | inhibition at 10 µM (CYP2D6) [%] | pKi [1] | pKi [2, 6] | activity in the forced swim test ([3]; doses up to 30 mg/kg IP) | inhibition at 10 µM [4] [%] | pKi [4] | pKi (α2b adrenergic receptor) | inhibition at 10 µM [5] [%] | pIC50 [5] | increase in time spent swimming ([3]; 10 mg/kg IP) [%] | increase in time spent swimming ([3]; 30 mg/kg IP) [%] | amount of time spent climbing [3] | pIC50 (CYP2D6) | pKi [2] |
| --- | --- | --- | --- | --- | --- | --- | --- | --- | --- | --- | --- | --- | --- | --- |
| CNCC/C=C1\c2ccccc2C[C@H](O)c2ccccc21 (stereo in doubt) [(+)-E-10-OH-NT] | 40 | 5.38 | 6.15 | not active | 25 | < 6.00 | 5.38 | 19 | < 6.00 | – | – | – | – | – |
| CNCC/C=C1\c2ccccc2C[C@@H](O)c2ccccc21 (stereo in doubt) [(−)-E-10-OH-NT] | 37 | 5.59 | 5.52 | – | 3 | < 6.00 | 5.37 | 16 | < 6.00 | 64 | 108 | did not alter the amount of time spent climbing | – | – |
| CN(C)CCC=C1c2ccccc2CCc2ccccc21 [AT, amitriptyline, reference compound] | – | – | 7.68 | – | – | 5.68 | – | – | 5.62 | 81 | 147 | did not alter the amount of time spent climbing | 6.09 | – |
| CNCCC=C1c2ccccc2CCc2ccccc21 [NT, nortriptyline, reference compound] | – | 6.66 | – | – | – | – | – | – | 5.77 | – | – | – | 6.15 | 7.22 |
